Results: patent publication US20050170397A1, “Novel receptors” (Tularik Inc., priority 2000, published 2005)
Entries after “also recorded” stand apart in the source; their conditions may differ. Where no end group is shown, it is not given here.

Legend:
[1] = tested on: endogenous Gq receptors; assay: Ca^2+ response through endogenous Gq receptors with or without PTX (control); type: cell-based; details: HEK293 cells; 100 ng/ml PTX for 16 hr; FIG. 7
Procedure: (§1) The Ca^2+ responses were determined with the aequorin assay. Relative luminescence is expressed as the fold-luminescence of that from the cells treated with the highest cocnetration of the ligand without PTX treatment.
(§2) LPA and ADP, which stimulate Ca^2+ increase through endogenous Gi and Gq receptors, respectively (see, e.g., Moolenaar, Ann. N. Y Acad. Sci. 905:1-10, 2000; Fields et al., Biochem. J. 321:561-571, 1997), were tested as controls. As expected, LPA-induced Ca^2+ response was PTX sensitive while the ADP-induced response was resistant (FIG. 7).

[2] = target: T1, TGR342 (Homo sapiens, UniProt Q969V1); assay: aequorin luminescence assay of intracellular calcium mobilization, TGR342-transfected cells; type: cell-based; details: for effect on intracellular calcium levels (peptide library screen): peptides at 1 μM, HEK293 or CHO cells co-transfected with pEF6-V5/TGR342 and pcDNA3/AEQ; for TGR342 agonist activity of MCH-related peptides / TGR342 agonist activity at 1 μM: FIG. 5; for TGR342 agonist activity of MCH-related peptides: concentration not given
T1 construct: The full-length TGR342 cDNA was cloned by; V5 (known only from the vector name pEF6-V5); expressed in transfected cells; host or cells: HEK293 and CHO cells, transient
T1 sequence (Q969V1 whole entry): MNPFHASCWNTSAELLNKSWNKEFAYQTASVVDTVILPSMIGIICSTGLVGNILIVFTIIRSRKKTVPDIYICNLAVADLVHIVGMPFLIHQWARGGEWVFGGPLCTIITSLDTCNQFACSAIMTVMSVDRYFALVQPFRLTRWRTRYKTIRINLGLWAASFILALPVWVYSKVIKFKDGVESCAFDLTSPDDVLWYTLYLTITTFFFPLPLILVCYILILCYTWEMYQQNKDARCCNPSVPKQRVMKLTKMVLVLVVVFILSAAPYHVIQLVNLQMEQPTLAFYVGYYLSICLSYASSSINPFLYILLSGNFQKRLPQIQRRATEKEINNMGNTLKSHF
Procedure: HEK293 and CHO cells were transiently co-transfected with pEF6-V5/TGR342 and pcDNA3/AEQ (expressing aequorin). After 24 hours of incubation, the transfected cells were treated for one hour with serum free medium containing 2 μM coelenterazine f (Molecular Probes). The cells were then collected in the assay buffer HBSS (Hanks' Balanced Saline Solution containing 10 mM hepes and 0.1% BSA). Thereafter, the transfected cells were stimulated with the peptides at a concentration of 1 μM and the kinetics of […] from the cells was recorded with a microplate luminometer (EG & G BERTHOLT).

[3] = target: T2, MCHR1 (Homo sapiens, UniProt Q99705); assay: Ca^2+ response (aequorin assay) with or without pertussis toxin, MCHR1-transfected cells; type: cell-based; details: MCH stimulation; 100 ng/ml PTX pretreatment for 16 hr
T2 sequence (Q99705 whole entry): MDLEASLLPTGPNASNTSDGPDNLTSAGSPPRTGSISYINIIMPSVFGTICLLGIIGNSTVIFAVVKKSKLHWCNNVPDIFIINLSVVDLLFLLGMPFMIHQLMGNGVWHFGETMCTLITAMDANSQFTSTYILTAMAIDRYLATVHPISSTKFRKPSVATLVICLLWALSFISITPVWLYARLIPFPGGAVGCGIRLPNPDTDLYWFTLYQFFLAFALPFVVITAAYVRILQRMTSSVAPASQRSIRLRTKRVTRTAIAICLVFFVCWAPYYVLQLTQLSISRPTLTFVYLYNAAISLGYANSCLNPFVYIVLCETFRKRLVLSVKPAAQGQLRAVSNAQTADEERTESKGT
Procedure: as §1, §2

[4] = target: T1, TGR342; assay: Ca^2+ response (aequorin assay) with or without pertussis toxin, TGR342-transfected cells; type: cell-based
Procedure: as §1, §2

[5] = target: T1, TGR342; assay: [^125I]-MCH binding to membranes of TGR342-transfected HEK293 cells; details: inhibited by excess unlabeled MCH (data not shown)
[6] = target: T1, TGR342; assay: inositol phosphate production in TGR342-transfected cells with or without PTX; type: cell-based
[7] = target: T2, MCHR1; details: stated as known; cited from earlier work
[8] = 100 ng/ml PTX pretreatment for 16 hr
[9] = HEK293 (or CHO) cells transfected with pEF6/V5-TGR342

Compound: Nc1ncnc2c1ncn2[C@@H]1O[C@H](COP(=O)(O)OP(=O)(O)O)[C@@H](O)[C@H]1O [ADP]
- PTX sensitivity of the Ca^2+ response through endogenous Gq receptors [1]: resistant

Compound: CSCC[C@@H]1NC(=O)[C@@H](NC(=O)[C@H](CCCNC(=N)N)NC(=O)[C@H](CC(C)C)NC(=O)[C@H](CCSC)NC(=O)[C@H](CC(=O)O)NC(=O)[C@H](Cc2ccccc2)NC(=O)[C@@H](N)CC(=O)O)CSSC[C@@H](C(=O)N[C@@H](Cc2c[nH]c3ccccc23)C(=O)N[C@@H](CCC(N)=O)C(=O)N[C@H](C(=O)O)C(C)C)NC(=O)[C@@H]2CCCN2C(=O)[C@H](CCCNC(=N)N)NC(=O)[C@H](Cc2ccc(O)cc2)NC(=O)[C@H](C(C)C)NC(=O)[C@H](CCCNC(=N)N)NC(=O)CNC(=O)[C@H](CC(C)C)NC1=O [MCH, melanin-concentrating hormone]
- effect on intracellular calcium levels (peptide library screen) [2]: increased intracellular calcium levels
- PTX sensitivity of the Ca^2+ response, MCHR1 [3]: mostly inhibited
- PTX sensitivity of the Ca^2+ response, TGR342 [4, 8]: insensitive to PTX treatment
- Ca^2+ levels in TGR342-transfected cells [4, 9]: increased levels
- specificity of binding to TGR342 [5]: specific
- PTX sensitivity of the inositol phosphate response, TGR342 [6, 8]: insensitive to PTX treatment
- inositol phosphate levels in TGR342-transfected cells [6, 9]: increased levels; also recorded: increased the production of inositol phosphate

Compound: [Phe^13, Tyr^19]-MCH
- activation of MCHR1 (known) [7]: bind and activate
- TGR342 agonist activity of MCH-related peptides [2]: activates

Compound: cortistatin-14 (PCKNFFWKTFSSCK; ends and bridges not checked; cysteine pairing not given here; UniProt Q62949 99-112, looked up) [peptide structurally very similar to somatostatin]
- TGR342 agonist activity at 1 μM [2]: None of these peptides exhibited activity

Compound: cortistatin-17
- TGR342 agonist activity at 1 μM [2]: None of these peptides exhibited activity

Compound: neuropeptide GE: peptide from the same MCH precursor (GSVAFPAENGVQNTESTQE; Neuropeptide-glycine-glutamic acid; UniProt P20382 110-128, looked up)
- TGR342 agonist activity of MCH-related peptides [2]: inactive

Compound: neuropeptide-EI: peptide from the same MCH precursor (EIGDEENSAKFPI; ends and bridges not checked; UniProt P20382 131-143, looked up)
- TGR342 agonist activity of MCH-related peptides [2]: inactive

Compound: somatostatin-14
- TGR342 agonist activity at 1 μM [2]: None of these peptides exhibited activity

Compound: somatostatin-28
- TGR342 agonist activity at 1 μM [2]: None of these peptides exhibited activity

Compound: α-MSH: the functional MCH antagonist
- TGR342 agonist activity at 1 μM [2]: inactive as an agonist
- effect on intracellular calcium levels (peptide library screen) [2]: Neither somatostatin nor α-MSH showed any detectable effect
